# Assay results published in patent publication US20240041042A1, “1-(PYRIDYL)-5-AZINYLPYRAZOLE DERIVATIVES, AND THEIR USE FOR CONTROL OF UNDESIRED PLANT GROWTH” (Bayer Aktiengesellschaft, priority 2020, published 2024).
# Like-named read-outs stand apart in the source and are kept apart here.
# Legend:
# Type in all cases: in vivo
# Brassica napus (BRSNW) [1] = experiment: Post-emergence crop plant compatibility, BRSNW; conditions: 20 g/ha, effect in comparison to untreated controls
# Method: (§1) Seeds of monocotyledonous and dicotyledonous weeds and crop plants are placed in sandy loam in plastic or organic planting pots, covered with soil and cultivated in a greenhouse under controlled growth conditions. 2 to 3 weeks after sowing, the test plants are treated at the one-leaf stage. The compounds of the invention, formulated in the form of wettable powders (WP) or as emulsion concentrates (EC), are then sprayed onto the green parts of the plants as aqueous suspension or emulsion with addition of 0.5% additive at a water application rate of 600 l/ha (converted). After the test plants have been kept in the greenhouse under optimum growth conditions for about 3 weeks, the activity of the preparations is rated visually in comparison to untreated controls. For example, 100% activity=the plants have died, 0% activity=like control plants.
# (§2) The observed effects on selected crop plants are reported here in comparison to the untreated controls (values in %). The appendices “a”, “b” and “c” give differentiation by dosage used with otherwise the same crop plants tested.
# Setaria viridis (SETVI) [2] = experiment: Post-emergence herbicidal action against SETVI
# Outline: (§3)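 Values are percent visual activity (0% like control, 100% plants dead) after about 3 weeks in the greenhouse. Treatment: post-emergence spray at one-leaf stage, 600 l/ha spray volume, 0.5% additive, doses 320 g/ha or lower.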
# Zea mays (ZEAMX) = conditions: for Post-emergence action against ZEAMX in %: crop plant compatibility, effect vs untreated controls
# Outline: (§4)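 Greenhouse crops in sandy loam sprayed post-emergence at the one-leaf stage, 2–3 weeks after sowing, with WP or EC formulations in water plus 0.5% additive at 600 l/ha. Damage rated visually about 3 weeks later versus untreated controls (0% = like control, 100% = dead); suffixes a–c denote different doses.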
# Oryza sativa (ORYSA) [3] = conditions: crop plant compatibility
# Outline: as §4
# [4] = tested on: Triticum aestivum (TRZAS); conditions: crop plant compatibility, effect vs untreated controls
# Outline: as §4
# [5] = tested on: Pharbitis purpurea (PHBPU); experiment: Post-emergence herbicidal action against PHBPU
# Outline: as §3
# [6] = tested on: Verconica persica (VERPE); experiment: Post-emergence herbicidal action against VERPE
# Outline: as §3
# [7] = tested on: Alopecurus myosuroides (ALOMY); experiment: Post-emergence herbicidal action against ALOMY; conditions: visual rating about 3 weeks after treatment vs untreated controls (100% = plants have died, 0% = like control plants)
# Outline: as §3
# [8] = tested on: Digitaria sanguinalis (DIGSA); experiment: Post-emergence herbicidal action against DIGSA; conditions: 320 g/ha, visual rating about 3 weeks after treatment
# Outline: as §3
# Viola tricolor (VIOTR) = experiment: Post-emergence herbicidal action against VIOTR
# Outline: as §3
# [9] = tested on: Echinochloa crus-galli (ECHCG); experiment: Post-emergence herbicidal action against ECHCG
# Outline: as §3
# [10] = tested on: Matricaria inodora (MATIN); experiment: Post-emergence herbicidal action against MATIN; conditions: dosage 320 g/ha
# Outline: as §3
# [11] = tested on: Polygonum convolvulus (POLCO); experiment: Post-emergence herbicidal action against POLCO; conditions: dosage 320 g/ha
# Outline: as §3
# Lolium rigidum (LOLRI) = experiment: Post-emergence herbicidal action against LOLRI
# Outline: as §3
# [12] = tested on: Abutilon theophrasti (ABUTH); experiment: Post-emergence herbicidal action against ABUTH; conditions: 320 g/ha, visual rating about 3 weeks after treatment vs untreated controls (100% = plants have died, 0% = like control plants)
# Outline: as §3
# Avena fatua (AVEFA) = experiment: Post-emergence herbicidal action against AVEFA; conditions: visual rating about 3 weeks after treatment
# Outline: as §3
# Oryza sativa (ORYSA) [13] = conditions: pre-emergence, 80 g/ha, crop plant compatibility, in comparison to untreated controls
# Outline: (§5)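 Crop injury rated visually in percent against untreated plants roughly 3 weeks after treatment (0% no effect, 100% plants dead). Compounds, as WP or EC with 0.5% additive in 600 l/ha water, were applied to the covering soil right after sowing; greenhouse growth. Suffixes a, b, c denote different dosages.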
# Glycine max (GLXMA) [14] = conditions: pre-emergence, crop plant compatibility, in comparison to untreated controls
# Outline: as §5
# [15] = tested on: Triticum aestivum (TRZAS); conditions: pre-emergence, crop plant compatibility, in comparison to untreated controls
# Outline: as §5
# Brassica napus (BRSNW) [16] = conditions: crop plant compatibility, in comparison to untreated controls
# Outline: as §5
# [17] = tested on: Matricaria inodora (MATIN); experiment: Pre-emergence herbicidal action against MATIN; conditions: dosage 320 g/ha
# Outline: (§6)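 Pre-emergence soil-surface spray, WP/EC formulation, 0.5% additive, 600 l/ha water, rates of 320 g/ha or lower. Greenhouse, ~3 wk. Visual score, % of untreated control (100% = plants dead, 0% = like control).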
# Setaria viridis (SETVI) [18] = experiment: Pre-emergence herbicidal action against SETVI; conditions: dosage 320 g/ha
# Outline: as §6
# [19] = tested on: Echinochloa crus-galli (ECHCG); experiment: Pre-emergence herbicidal action against ECHCG; conditions: dosage 320 g/ha
# Outline: as §6
# Glycine max (GLXMA) [20] = experiment: Post-emergence crop plant compatibility, GLXMA; conditions: for Post-emergence action against GLXMA in %: 80 g/ha, effect in comparison to untreated controls
# Method: as §1, §2
# [21] = tested on: Amaranthus retroflexus (AMARE); experiment: Pre-emergence herbicidal action against AMARE; conditions: 320 g/ha, visual scoring after about 3 weeks vs untreated controls
# Outline: as §6
# [22] = tested on: Amaranthus retroflexus (AMARE); experiment: Post-emergence herbicidal action against AMARE
# Outline: as §3
# [23] = 80 g/ha, effect in comparison to untreated controls
structure (smiles),measurement,setting,value
O=C(COc1nn(-c2ncccc2F)c(-c2ccc(F)nc2)c1C1CC1)OCC1CCOC1 (centres unmarked) [Example I-289],Post-emergence action against BRSNW in %,Brassica napus (BRSNW) [1],20%
same,Post-emergence action against SETVI in %,Setaria viridis (SETVI) [2]; dosage 80 g/ha,90%
same,Post-emergence action against SETVI in %,Setaria viridis (SETVI) [2]; dosage 320 g/ha,90%
same,Post-emergence action against ZEAMX in % (crop plant compatibility),"Zea mays (ZEAMX); 20 g/ha, ZEAMX, effect in comparison to untreated controls",0%
same,Post-emergence action against ZEAMX in %,Zea mays (ZEAMX); 80 g/ha,10%
same,Post-emergence action against ORYSA in %,"Oryza sativa (ORYSA) [3]; 20 g/ha, effect vs untreated controls",0%
same,Post-emergence action against ORYSA in %,Oryza sativa (ORYSA) [3]; [23],10%
same,Post-emergence action against TRZAS in %,[4]; 20 g/ha,20%
same,Post-emergence action against PHBPU in %,[5]; dosage 80 g/ha,80%
same,Post-emergence action against PHBPU in %,[5]; dosage 320 g/ha,80%
same,Post-emergence action against VERPE in %,"[6]; 320 g/ha, VERPE",80%
same,Post-emergence action against VERPE in %,[6]; dosage 80 g/ha,80%
same,Post-emergence action against ALOMY in %,[7]; 80 g/ha,80%
same,Post-emergence action against ALOMY in %,[7]; 320 g/ha,90%
same,Post-emergence action against DIGSA in %,[8],80%
same,Post-emergence action against VIOTR in %,Viola tricolor (VIOTR); 80 g/ha,80%
same,Post-emergence action against VIOTR in %,Viola tricolor (VIOTR); 320 g/ha,80%
same,Post-emergence action against ECHCG in %,[9]; dosage 80 g/ha,80%
same,Post-emergence action against ECHCG in %,[9]; dosage 320 g/ha,80%
same,Post-emergence action against MATIN in %,[10],90%
same,Post-emergence action against POLCO in %,[11],80%
same,Post-emergence action against LOLRI in %,Lolium rigidum (LOLRI); dosage 80 g/ha,80%
same,Post-emergence action against LOLRI in %,Lolium rigidum (LOLRI); dosage 320 g/ha,90%
same,Post-emergence action against ABUTH in %,[12],80%
same,Post-emergence action against AVEFA in %,Avena fatua (AVEFA); 80 g/ha,80%
same,Post-emergence action against AVEFA in %,Avena fatua (AVEFA); 320 g/ha,90%
CCOC(=O)CCNC(=O)CSc1nn(-c2ccccn2)c(-c2cncc(F)c2)c1Br [Example I-82],Post-emergence action against ORYSA in %,Oryza sativa (ORYSA) [3]; [23],20%
same,Pre-emergence action against ORYSA in %,Oryza sativa (ORYSA) [13],0%
same,Pre-emergence action against GLXMA in %,Glycine max (GLXMA) [14]; 80 g/ha,0%
same,Pre-emergence action against TRZAS in %,[15]; 80 g/ha,0%
same,Pre-emergence action against TRZAS in %,[15]; 320 g/ha,20%
same,Pre-emergence action against BRSNW in %,Brassica napus (BRSNW) [16]; 80 g/ha,20%
same,Pre-emergence action against BRSNW in %,Brassica napus (BRSNW) [16]; 320 g/ha,20%
same,Post-emergence action against VIOTR in %,Viola tricolor (VIOTR); 320 g/ha,80%
same,Pre-emergence action against MATIN in %,[17],90%
same,Post-emergence action against ECHCG in %,[9]; dosage 320 g/ha,80%
same,Pre-emergence action against SETVI in %,Setaria viridis (SETVI) [18],90%
same,Pre-emergence action against ECHCG in %,[19],90%
same,Post-emergence action against GLXMA in %,Glycine max (GLXMA) [20],0%
CCOC(=O)C[S+]([O-])c1nn(-c2ccccn2)c(-c2cncc(F)c2)c1Cl (centres unmarked) [Example I-150],Pre-emergence action against AMARE in %,[21],80%
same,Post-emergence action against SETVI in %,Setaria viridis (SETVI) [2]; dosage 320 g/ha,80%
same,Post-emergence action against ZEAMX in %,Zea mays (ZEAMX); 80 g/ha,0%
same,Post-emergence action against ZEAMX in %,Zea mays (ZEAMX); 320 g/ha,0%
same,Post-emergence action against ORYSA in %,Oryza sativa (ORYSA) [3]; [23],0%
same,Post-emergence action against ORYSA in %,"Oryza sativa (ORYSA) [3]; 320 g/ha, effect in comparison to untreated controls",0%
same,Post-emergence action against TRZAS in %,[4]; 80 g/ha,0%
same,Post-emergence action against TRZAS in %,[4]; 320 g/ha,10%
same,Pre-emergence action against ORYSA in %,Oryza sativa (ORYSA) [13],20%
same,Pre-emergence action against GLXMA in %,Glycine max (GLXMA) [14]; 80 g/ha,0%
same,Pre-emergence action against GLXMA in %,Glycine max (GLXMA) [14]; 320 g/ha,0%
same,Pre-emergence action against TRZAS in %,[15]; 80 g/ha,0%
same,Pre-emergence action against TRZAS in %,[15]; 320 g/ha,0%
same,Pre-emergence action against BRSNW in %,Brassica napus (BRSNW) [16]; 80 g/ha,0%
same,Post-emergence action against VIOTR in %,Viola tricolor (VIOTR); 320 g/ha,80%
same,Post-emergence action against POLCO in %,[11],90%
same,Post-emergence action against AMARE in %,"[22]; 80 g/ha, visual rating about 3 weeks after treatment vs untreated controls (100% = plants have died, 0% = like control plants)",80%
same,Post-emergence action against AMARE in %,"[22]; 320 g/ha, visual rating about 3 weeks after treatment",80%
same,Post-emergence action against GLXMA,"Glycine max (GLXMA) [20]; 320 g/ha, effect vs untreated controls",0%
same,Post-emergence action against GLXMA in %,Glycine max (GLXMA) [20],0%
